Assay results reported in US20260224524A1, “A PHARMACEUTICAL COMPOSITION TARGETING MUTANT P53 AND HER2” (DR DOZO LABORATORIES, priority 2023, published 2026).
pIC50: −log10 of the molar value. Read-outs that look alike come from different tables or passages of the source.

Tests used:
A549 cell line [1] = assay: Cell viability test using trypan blue exclusion method against A549; format: cell-based; settings: Homo sapiens, 24 h
Procedure: For cytotoxicity studies, Test sample was considered as 100% stock and serial two-fold dilutions were prepared from 10% to 0.156% using F-12K plain media for treatment. 10 mM stock of Standard Doxorubicin was diluted from 100 μM to 1.56 μM using F-12K plain media for treatment.
(§1) A549 cells were cultured in F-12K medium with appropriate supplements in a humidified atmosphere of 5% CO2 at 37° C. until confluent. The viability of the cells was checked using conventional hemocytometer. Appropriate cell density per ml of media was prepared and seeded in a 96 well plate and incubated for 24 h at 37° C. with 5% CO2 to assess the cell viability.
• 1. The cell count was adjusted to 5×10^5 cells/ml using complete media. To each well of the 96 well microtiter plate, 100 μl of the diluted cell suspension (50,000 cells/well) was added and incubated for 24 h at 37° C. in 5% CO2 atmosphere. • 2. After 24 h, the cells were treated with various concentrations of test compound and incubated at 37° C. for 24 h in 5% CO2 atmosphere. • 3. After incubation the test solutions in the wells were discarded. • 4. Cells were trypsinized and 20 μl of cell suspension was taken for viability counting. • 5. To this 20 μl of trypan blue dye was added and mixed well. • 6. The mixture was then loaded to haemocytometer at the end of the notch with the help of pipette. • 7. Haemocytometer was kept under the inverted microscope and scored in each quadrant. • 8. Cell counting wad done according to Neubauer's rules and noted. Percentage cell viability was calculated for the obtained data using below given formulae.
Viable cells=Average viable cells*2*10^3 cells/100 μl
% Viability=Viable cells/Total cells×100

A549 cell line [2] = assay: Cytotoxicity MTT assay against A549; format: cell-based; settings: Homo sapiens; for inhibition at 1.563 µM / inhibition at 3.125 µM / inhibition at 6.25 µM / inhibition at 12.5 µM / inhibition at 25 µM / inhibition at 50 µM / inhibition at 100 µM: A549, A549
Procedure: For cytotoxicity studies, Test sample was considered as 100% stock and serial two-fold dilutions were prepared from 10% to 0.156% using F-12K plain media for treatment. 10 mM stock of Standard Doxorubicin was diluted from 100 μM to […] using F-12K plain media for treatment.
as §1
• 1. The cell count was adjusted to 5×10^5 cells/ml using complete media. To each well of the 96 well microtiter plate, 100 μl of the diluted cell suspension (50,000 cells/well) was added and incubated for 24 h at 37° C. in 5% CO2 atmosphere. • 2. After 24 h, the cells were treated with various concentrations of test compound and incubated at 37° C. for 24 h in 5% CO2 atmosphere. • 3. After incubation, the test solutions in the wells were discarded and 100 μl of MTT (5 mg/10 ml of MTT in PBS) was added to each well. The plates were incubated for 4 h at 37° C. in 5% CO2 atmosphere. • 4. The supernatants were removed and 100 μl of DMSO was added and the plates were gently shaken to solubilize the formed formazan. The absorbance was measured using a microplate reader at a wavelength of 590 nm. • 5.
% Inhibition=(OD of sample−OD of Control/OD of Control)×100

[3] = read-out: % Mean Cell Inhibition

COc1cccc2c1C(=O)c1c(O)c3c(c(O)c1C2=O)C[C@@](O)(C(=O)CO)C[C@@H]3O[C@H]1C[C@H](N)[C@H](O)[C@H](C)O1 [Doxorubicin]
viability at 1.563 µM (A549 cell line [1]; 1.563 μM): 85.5% | viability at 3.125 µM (A549 cell line [1]; 3.125 μM): 74.5% | viability at 6.25 µM (A549 cell line [1]; 6.25 μM): 66.1% | viability at 12.5 µM (A549 cell line [1]; 12.5 μM): 51.6% | viability at 25 µM (A549 cell line [1]; 25 μM): 36.5% | viability at 50 µM (A549 cell line [1]; 50 μM): 26.2% | viability at 100 µM (A549 cell line [1]; 100 μM): 11.1% | inhibition at 1.563 µM (A549 cell line [2]; n = 1, read-out: % Inhibition): 17.3% | inhibition at 1.563 µM (A549 cell line [2]; n = 2, read-out: % Inhibition): 19.6% | inhibition at 1.563 µM (A549 cell line [2]; n = 3, read-out: % Inhibition): 18.4% | inhibition at 1.563 µM (A549 cell line [2]; [3]): 18.4% | inhibition at 3.125 µM (A549 cell line [2]; n = 1, read-out: % Inhibition): 27.8% | inhibition at 3.125 µM (A549 cell line [2]; n = 2, read-out: % Inhibition): 25.6% | inhibition at 3.125 µM (A549 cell line [2]; n = 3, read-out: % Inhibition): 24.7% | inhibition at 3.125 µM (A549 cell line [2]; [3]): 26.1% | inhibition at 6.25 µM (A549 cell line [2]; n = 1, read-out: % Inhibition): 36.3% | inhibition at 6.25 µM (A549 cell line [2]; n = 2, read-out: % Inhibition): 35.9% | inhibition at 6.25 µM (A549 cell line [2]; n = 3, read-out: % Inhibition): 37.4% | inhibition at 6.25 µM (A549 cell line [2]; [3]): 36.5% | inhibition at 12.5 µM (A549 cell line [2]; n = 1, read-out: % Inhibition): 45.4% | inhibition at 12.5 µM (A549 cell line [2]; n = 2, read-out: % Inhibition): 44.2% | inhibition at 12.5 µM (A549 cell line [2]; n = 3, read-out: % Inhibition): 45.8% | inhibition at 12.5 µM (A549 cell line [2]; [3]): 45.1% | inhibition at 25 µM (A549 cell line [2]; n = 1, read-out: % Inhibition): 64.5% | inhibition at 25 µM (A549 cell line [2]; n = 2, read-out: % Inhibition): 65.2% | inhibition at 25 µM (A549 cell line [2]; n = 3, read-out: % Inhibition): 65.2% | inhibition at 25 µM (A549 cell line [2]; [3]): 65% | inhibition at 50 µM (A549 cell line [2]; n = 1, read-out: % Inhibition): 75.5% | inhibition at 50 µM (A549 cell line [2]; n = 2, read-out: % Inhibition): 74.4% | inhibition at 50 µM (A549 cell line [2]; n = 3, read-out: % Inhibition): 78.2% | inhibition at 50 µM (A549 cell line [2]; [3]): 76% | inhibition at 100 µM (A549 cell line [2]; n = 1, read-out: % Inhibition): 87.9% | inhibition at 100 µM (A549 cell line [2]; n = 2, read-out: % Inhibition): 90.3% | inhibition at 100 µM (A549 cell line [2]; n = 3, read-out: % Inhibition): 89.2% | inhibition at 100 µM (A549 cell line [2]; [3]): 89.2% | pIC50 (A549 cell line [2]; A549, MTT, 24 h): 4.69
